Assay [1] has as its target E. coli MurE (Escherichia coli, UniProt P22188). In words: Malachite green inhibition assay, MurE. The format is biochemical. On the procedure: Inhibition of the Mur ligases was determined using the malachite green assay, with slight modifications.
MurE: 50 mM Hepes, pH 8.0, 15 mM MgCl2, 0.005% Triton X-114, 60 µM meso-diaminopimelic acid, 100 µM uridine-5′-diphosphate-N-acetylmuramoyl-L-alanine-D-glutamate, 1000 µM ATP, and purified E. coli MurE[27].
In all cases, the final concentration of DMSO was 5% (v/v). After incubation for 15 min at 37 °C, the enzyme reaction was terminated by addition of 100 µM Biomol green reagent, and the absorbance was measured at 650 nm after 5 min. All of the experiments were run in duplicate. Residual activities were calculated with respect to control assays without the tested compounds, but with the 5% DMSO carrier.
The published kinase inhibitor set compounds were evaluated for inhibition of MurC, D and F ligases from E. coli using the Malachite green assay, which detects orthophosphate generated during enzymatic reactions. To avoid non-specific inhibition due to aggregate formation, all of the compounds were tested in the presence of detergent (0.005% Triton-X114). The data are presented as the residual activities of these Mur ligases in the presence of 100 µM of each test compound (Supporting Information Table S1). […]. The IC50 values against MurC, D, E and F were determined for the selected hit compounds – one representative compound from each structural class was chosen: compound 1[33], aza-stilbene derivative; compound 2[34], alkynyl pyrimidine; compound 3[35], pyrazolo [1,5]-b]pyridazine; compound 4[36], phenoxypyrimidine; compound 5[37], 4,6-bis-anilino-1H-pyrrolo[2,3-pyrimidine (Table 1). […]. […] Among the hits, compounds for further mechanistic studies were chosen on the basis of their ligand efficiency. Ligand efficiency quantifies the molecular properties, particularly size and lipophilicity and is used as a selection criterion for structurally different compounds as more ‘efficient’ ligands have the potential to control for the inflation of these properties[38] Thus ligand efficiencies were calculated for the four hits (Supporting Information Table S2)[39]^,[40], and compound 1 was selected as the most promising for additional studies. Additionally, regarding the data of profiled compounds in large panels of human kinase assays[41] […] To provide sufficient amounts of compound 1 for kinetic and NMR studies, it was resynthesized according to the synthetic procedures (Figure 2) described in the literature.

The target of assay [2] is E. coli MurF (Escherichia coli, UniProt P11880). In words: biochemical.
The target in assay [3] is E. coli MurD (Escherichia coli, UniProt P14900). In words: biochemical. The gist of the method: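 Reaction 15 min at 37 °C, then phosphate detected with Biomol green at 650 nm. Values are residual activity versus 5% DMSO carrier controls.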
Assay [4] relates to human kinases. Conditions: over 200 kinase activity assays and 68 DSF assays; cited from earlier work.
The mark [5] stands for this setting: Table S3, aza stilbene compounds.
[6] abbreviates: residual activity at 100 µM compound, Table 1.
[7] abbreviates: ligand efficiency, LE = (1.37 × pIC50)/HAC.

Data on 1 compound can be found in publication PMC6522912, “Evaluation of the published kinase inhibitor set to identify multiple inhibitors of bacterial ATP-dependent mur ligases” (Journal of Enzyme Inhibition and Medicinal Chemistry, 2019).

Sequence of E. coli MurD (P14900 whole entry): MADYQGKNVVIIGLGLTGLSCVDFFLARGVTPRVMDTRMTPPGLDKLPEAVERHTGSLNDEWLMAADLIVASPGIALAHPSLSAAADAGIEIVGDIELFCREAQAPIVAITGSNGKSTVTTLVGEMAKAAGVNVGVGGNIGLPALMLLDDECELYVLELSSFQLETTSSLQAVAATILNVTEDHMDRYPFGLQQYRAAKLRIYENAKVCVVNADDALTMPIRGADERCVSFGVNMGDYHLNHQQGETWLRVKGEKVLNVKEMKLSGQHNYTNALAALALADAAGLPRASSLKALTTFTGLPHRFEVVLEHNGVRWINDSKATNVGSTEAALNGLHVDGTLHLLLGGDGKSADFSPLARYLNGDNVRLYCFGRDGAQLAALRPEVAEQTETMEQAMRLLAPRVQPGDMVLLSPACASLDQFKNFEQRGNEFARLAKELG
Sequence of E. coli MurE (P22188 whole entry): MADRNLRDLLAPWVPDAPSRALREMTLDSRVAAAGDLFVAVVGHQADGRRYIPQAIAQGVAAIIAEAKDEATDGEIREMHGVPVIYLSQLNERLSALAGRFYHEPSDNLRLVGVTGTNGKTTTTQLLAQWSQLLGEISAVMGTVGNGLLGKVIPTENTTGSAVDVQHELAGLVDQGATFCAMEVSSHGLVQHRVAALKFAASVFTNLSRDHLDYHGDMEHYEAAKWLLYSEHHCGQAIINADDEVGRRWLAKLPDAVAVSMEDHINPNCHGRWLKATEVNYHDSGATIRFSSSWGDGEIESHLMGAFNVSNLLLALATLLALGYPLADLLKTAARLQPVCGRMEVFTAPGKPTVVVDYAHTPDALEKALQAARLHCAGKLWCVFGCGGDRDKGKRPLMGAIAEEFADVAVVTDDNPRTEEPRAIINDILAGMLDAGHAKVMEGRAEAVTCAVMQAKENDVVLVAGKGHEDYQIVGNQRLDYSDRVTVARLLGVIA
Sequence of E. coli MurF (P11880 whole entry): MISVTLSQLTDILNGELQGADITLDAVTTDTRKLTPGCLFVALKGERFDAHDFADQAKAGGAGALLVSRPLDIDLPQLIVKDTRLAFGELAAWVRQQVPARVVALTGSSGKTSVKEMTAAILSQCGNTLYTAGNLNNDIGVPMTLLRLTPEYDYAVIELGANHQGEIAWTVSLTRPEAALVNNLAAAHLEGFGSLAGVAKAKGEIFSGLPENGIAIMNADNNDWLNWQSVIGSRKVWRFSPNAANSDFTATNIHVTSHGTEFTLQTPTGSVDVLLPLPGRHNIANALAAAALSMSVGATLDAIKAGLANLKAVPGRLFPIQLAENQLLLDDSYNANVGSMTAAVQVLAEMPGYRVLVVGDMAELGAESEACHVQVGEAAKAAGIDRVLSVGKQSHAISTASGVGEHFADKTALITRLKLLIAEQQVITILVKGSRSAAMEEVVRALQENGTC

In the case of `Cc1cc(-c2ccco2)cc(C)c1/C=C/c1cncc(-c2nn[nH]n2)c1` [Compound 1], the half-maximal inhibitory concentration (IC50) (in general, the midpoint of a concentration-inhibition curve) in assay [1] was 79 µM; in assay [2] (Table 1), 59 µM; in assay [3] (Table 1, read-out: MurD IC50) it was 104 µM. For the same compound, the “RA (%) MurE” value in assay [1] (setting [5]) turned out to be 49%. Also, in assay [1] (setting [6]), the “MurE RA [%]” value came to 49%. Moreover, the remaining activity at 100 µM was 26% in assay [2] (0.25 h, Table S1, PKIS screening, read-out: RA [%] at 100 µM MurF) and 45% in assay [3] (0.25 h, Table S1, PKIS screening, read-out: RA [%] at 100 µM MurD). In assay [2] (setting [5]), the “RA (%) MurF” value is 26%. For the same compound, the “LE (MurF)” value in assay [2] (setting [7]) is 0.22. Besides, the “MurF RA [%]” value in assay [2] (setting [6]) was found to be 26%. Also, the “LE (MurD)” value in assay [3] (setting [7]) was determined as 0.21. In assay [3] (setting [6]), the “MurD RA [%]” value was determined as 45%. In addition, the “activity at human kinases” value in assay [4] was “no appreciable activity”.
